Assay [1] in a line: CCR5-tropic HIV-1 fusion blockers – cell-based, CCR5-tropic Env, dose response (AID 2279). In kind it is functional.
For assay [2], the target named is T1, Neuropeptide Y receptor type 2 (Homo sapiens, UniProt P49146).
T1 sequence (P49146 whole entry): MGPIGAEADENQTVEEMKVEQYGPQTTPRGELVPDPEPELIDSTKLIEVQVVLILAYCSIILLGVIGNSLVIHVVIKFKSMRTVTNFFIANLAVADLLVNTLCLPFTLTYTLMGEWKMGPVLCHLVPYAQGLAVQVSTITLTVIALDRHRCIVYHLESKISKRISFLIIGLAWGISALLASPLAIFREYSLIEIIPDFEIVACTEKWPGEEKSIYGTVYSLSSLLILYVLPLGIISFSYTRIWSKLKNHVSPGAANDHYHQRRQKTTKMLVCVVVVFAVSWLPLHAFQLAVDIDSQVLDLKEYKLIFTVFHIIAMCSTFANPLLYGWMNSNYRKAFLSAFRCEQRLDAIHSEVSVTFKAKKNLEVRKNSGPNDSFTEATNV
In kind it is functional, cell-based.

In assay [3] the target is T2, Neuropeptide Y receptor type 1 (Homo sapiens, UniProt P25929).
T2 sequence (P25929 whole entry): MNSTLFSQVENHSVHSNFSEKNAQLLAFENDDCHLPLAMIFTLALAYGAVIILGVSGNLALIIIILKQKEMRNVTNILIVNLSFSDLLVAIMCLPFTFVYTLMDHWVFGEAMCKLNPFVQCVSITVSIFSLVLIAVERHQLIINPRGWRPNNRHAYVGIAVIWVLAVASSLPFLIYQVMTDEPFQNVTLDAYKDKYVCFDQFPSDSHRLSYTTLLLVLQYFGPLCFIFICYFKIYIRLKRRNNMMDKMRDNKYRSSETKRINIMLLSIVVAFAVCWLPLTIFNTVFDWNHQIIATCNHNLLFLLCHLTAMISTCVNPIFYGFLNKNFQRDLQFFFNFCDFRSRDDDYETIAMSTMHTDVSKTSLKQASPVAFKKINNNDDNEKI
In kind it is functional.

The next assay concerns Streptococcus. Description: GAS UMAA2166 growth inhibition – luminescence, BacTiterGlo, counter-screen for streptokinase expression inhibitor project, dose response (AID 1915).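 Further: potency for reduction of bacterial viability or growth.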 In kind it is functional, organism-based.
Assay [4] has as its target T2, Neuropeptide Y receptor type 1. Description: IC50 of human NPY-Y1 blockers – cell-based, dose response (AID 1277). In kind it is functional.
The subject of another assay is H4. Put plainly: Luminescence Cell-Based Dose Response HTS to Identify Activators of 5'UTR Stem-Loop Driven Prion Protein mRNA Translation in H4 Neuroglioblastoma Cells. [Related pubchem assays: 1829 (Project Summary), 1814 (Primary HTS)]. In kind it is functional. As to conditions: Homo sapiens.
In assay [5] the test system is Streptococcus sp. 'group A'. Description: Streptococcus pyogenes SK(-)GAS viability under kanamycin – luminescence, BacTiterGlo, confirmation, counter-screen for streptokinase expression inhibitor project, dose response (AID 1900). In kind it is functional, organism-based. (Counterscreens check selectivity or assay interference.)
A further assay deals with T3, Streptokinase A (Streptococcus pyogenes serotype M1, UniProt P10520).
T3 sequence (P10520 whole entry): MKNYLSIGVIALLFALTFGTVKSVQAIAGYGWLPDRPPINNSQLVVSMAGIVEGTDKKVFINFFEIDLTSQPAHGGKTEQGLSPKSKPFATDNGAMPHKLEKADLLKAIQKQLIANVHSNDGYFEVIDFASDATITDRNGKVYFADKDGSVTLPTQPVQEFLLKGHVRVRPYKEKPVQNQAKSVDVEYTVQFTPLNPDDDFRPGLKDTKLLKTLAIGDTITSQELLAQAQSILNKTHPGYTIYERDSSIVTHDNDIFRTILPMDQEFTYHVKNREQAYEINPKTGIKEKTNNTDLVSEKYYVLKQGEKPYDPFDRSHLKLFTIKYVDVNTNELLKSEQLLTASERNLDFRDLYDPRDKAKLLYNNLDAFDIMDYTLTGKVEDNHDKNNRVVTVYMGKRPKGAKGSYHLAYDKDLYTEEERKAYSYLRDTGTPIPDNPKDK
Put plainly: viability-normalized secreted streptokinase activity reduction – plasminogen activation absorbance, OD405, dose response (AID 1914).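 Further: secreted streptokinase activity via plasminogen activation per viability signal from cell pellet.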 In kind it is functional, Streptococcus pyogenes M1 GAS.

For assay [6], the target named is T1, Neuropeptide Y receptor type 2. Description: IC50 for human NPY-Y2 blockade – cell-based, counter-screen for NPY-Y1 antagonist project, dose response (AID 1278). In kind it is functional.
Assay [7] in a line: Luminescence Cell-Based Dose Response HTS to Identify Activators of Luciferase Translation or Activity in H4 […] Cells. [Related pubchem assays: 1829 (Project Summary), 1814 (Primary HTS)]. In kind it is functional.
The next assay deals with Beta-galactosidase (Escherichia coli, UniProt Q8VNN2). Description: PubChem AID 485352. In kind it is functional.
Assay [8] deals with T4, Type-1 angiotensin II receptor (Homo sapiens, UniProt P30556).
T4 sequence (P30556 whole entry): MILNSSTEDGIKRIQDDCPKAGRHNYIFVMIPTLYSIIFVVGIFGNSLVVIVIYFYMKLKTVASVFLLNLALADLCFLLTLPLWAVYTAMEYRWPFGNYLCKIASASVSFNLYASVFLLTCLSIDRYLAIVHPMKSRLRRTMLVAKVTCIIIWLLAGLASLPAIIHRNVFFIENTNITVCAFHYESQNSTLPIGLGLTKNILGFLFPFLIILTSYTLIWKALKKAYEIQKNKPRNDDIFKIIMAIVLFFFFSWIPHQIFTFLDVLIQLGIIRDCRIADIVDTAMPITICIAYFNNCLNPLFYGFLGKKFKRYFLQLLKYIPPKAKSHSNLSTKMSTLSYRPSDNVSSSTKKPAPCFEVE
Description: antagonism of angiotensin II type 1 receptor – cell-based, uHTS hits, selectivity assay for APJ receptor antagonist project, dose response (AID 463214).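 Further: antagonist potency against angiotensin II stimulated AT1 response.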 In kind it is functional.

The next assay addresses T5, Leucine aminopeptidase (Plasmodium falciparum 3D7, UniProt Q8IL11).
T5 sequence (Q8IL11 whole entry): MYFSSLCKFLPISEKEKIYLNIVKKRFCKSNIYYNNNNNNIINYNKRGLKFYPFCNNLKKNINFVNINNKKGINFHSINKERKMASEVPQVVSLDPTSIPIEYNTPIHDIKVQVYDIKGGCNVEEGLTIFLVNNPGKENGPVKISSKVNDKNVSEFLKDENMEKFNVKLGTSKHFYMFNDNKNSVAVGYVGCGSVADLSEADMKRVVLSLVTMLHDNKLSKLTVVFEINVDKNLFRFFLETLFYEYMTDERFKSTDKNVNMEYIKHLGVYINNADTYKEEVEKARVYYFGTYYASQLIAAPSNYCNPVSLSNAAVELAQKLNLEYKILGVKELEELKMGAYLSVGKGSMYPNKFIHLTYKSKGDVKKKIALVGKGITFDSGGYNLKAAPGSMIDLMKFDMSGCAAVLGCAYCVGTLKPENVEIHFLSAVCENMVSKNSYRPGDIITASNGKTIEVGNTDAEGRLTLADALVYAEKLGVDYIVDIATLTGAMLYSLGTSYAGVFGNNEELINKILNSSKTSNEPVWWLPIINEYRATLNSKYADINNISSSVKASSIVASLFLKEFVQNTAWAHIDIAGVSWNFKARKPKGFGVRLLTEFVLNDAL
Put plainly: P. falciparum M17LAP inhibitors, primary screen, biochemical, fluorogenic H-Leu-NHMec substrate, 1536-well (AID 1619). In kind it is functional.

Assay [9] is described as follows: mitochondrial function rescue without frataxin homolog – Friedreich's ataxia, plus single-dose screen, dose response (AID 1465).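 Further: yeast depleted of Yfh1p frataxin homolog grown on glycerol needing respiration; WST-1 tetrazolium dye reduction as measure of cellular dehydrogenase metabolic activity.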 In kind it is functional.

Active and inactive are the calls of the source.

Sequence of Beta-galactosidase (Q8VNN2 whole entry): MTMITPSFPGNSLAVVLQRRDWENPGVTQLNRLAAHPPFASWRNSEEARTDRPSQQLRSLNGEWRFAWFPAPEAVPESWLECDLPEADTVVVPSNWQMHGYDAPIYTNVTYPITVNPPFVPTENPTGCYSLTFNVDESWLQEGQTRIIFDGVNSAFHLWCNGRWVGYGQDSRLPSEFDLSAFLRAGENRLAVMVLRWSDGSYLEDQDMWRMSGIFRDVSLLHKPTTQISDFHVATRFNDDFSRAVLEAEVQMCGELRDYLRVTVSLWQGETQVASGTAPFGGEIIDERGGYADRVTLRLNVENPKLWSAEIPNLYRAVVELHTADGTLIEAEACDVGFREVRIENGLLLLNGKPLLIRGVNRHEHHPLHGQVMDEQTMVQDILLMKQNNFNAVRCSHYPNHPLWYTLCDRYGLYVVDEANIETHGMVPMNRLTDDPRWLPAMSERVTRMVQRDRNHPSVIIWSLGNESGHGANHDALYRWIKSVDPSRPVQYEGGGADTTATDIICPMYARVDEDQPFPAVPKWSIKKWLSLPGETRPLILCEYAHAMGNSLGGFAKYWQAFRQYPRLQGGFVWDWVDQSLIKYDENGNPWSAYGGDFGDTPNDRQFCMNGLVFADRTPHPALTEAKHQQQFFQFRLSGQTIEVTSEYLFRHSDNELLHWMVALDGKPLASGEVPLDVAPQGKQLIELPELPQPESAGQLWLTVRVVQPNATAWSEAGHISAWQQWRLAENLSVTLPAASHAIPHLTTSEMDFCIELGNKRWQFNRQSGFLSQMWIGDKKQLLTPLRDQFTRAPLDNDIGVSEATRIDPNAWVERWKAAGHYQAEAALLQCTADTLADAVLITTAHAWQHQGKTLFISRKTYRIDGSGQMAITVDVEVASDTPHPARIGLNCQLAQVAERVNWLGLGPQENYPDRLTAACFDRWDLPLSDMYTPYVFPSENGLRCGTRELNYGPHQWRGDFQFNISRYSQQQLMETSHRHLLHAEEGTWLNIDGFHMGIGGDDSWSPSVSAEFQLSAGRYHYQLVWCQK

Consider `COc1cc([N+](=O)[O-])cc(/C=C2/SC(=S)N(Cc3ccccc3)C2=O)c1O`, for which, in [1], the IC50 (as a rule, the concentration that gives 50% inhibition) is 8.82 µM (active).
As for `OC1(c2ccccc2)CCN(Cc2ccccc2)C2CCCCC21` (stereo unspecified), the IC50 in [2] is 4.38 µM (active); in [3] it was 10.2 µM (not active).
For the compound `Clc1ccc(-c2csc(Nc3ccccc3)[n+]2Cc2ccco2)c(Cl)c1`, the EC50 (usually the concentration giving half of the maximal effect) in the assay with Streptococcus was > 150 µM (not active); in the assay on H4, 51.2 µM (active); in assay [5], 12.3 µM (active); at Streptokinase A, 2.27 µM (active); in [7] it was > 120 µM (not active). The IC50 in assay [4] and in assay [6] was > 35 µM (not active) in each case.
Regarding `Cc1ccc(N/N=C2/C(=O)Nn3c2nc(C)cc3=O)cc1`, the EC50 at Beta-galactosidase was > 40 µM (inactive); in assay [9], > 100 µM (active). The IC50 in assay [8] is > 40 µM (not active); on Leucine aminopeptidase, 86.1 µM (active).
Turning to `Cc1ccccc1/C=C/c1nc2ccccc2c(=O)n1CCc1ccccc1`, the IC50 in assay [2] is 5.52 µM (active); in assay [3], 4.26 µM (active).

Values taken from ChEMBL document CHEMBL1201862, “PubChem BioAssay data set” (2004).
